Reference: ChEMBL document CHEMBL3045840, “Application of pocket modeling and k-nearest neighbor molecular field analysis (kNN-MFA) for designing of some anticoagulants: potential factor IXa inhibitors” (Med Chem Res, 2013)
Converted amounts (≈) assume the structure as drawn.

What was measured:
[1] = Anticoagulant activity in plasma assessed as elongation in mean prothrombin time after 5 min by Quick's method; format: functional, cell-free
[2] = Octanol-water partition coefficient, log P of the compound; format: physicochemical

IC50 [1] | logP [2] | Structure (SMILES)
1200 mg/L (≈ 3.14 mM) | 3.63 | C/C(CC(=O)Nc1nnc(-c2ccc([N+](=O)[O-])cc2)s1)=N\c1ccccn1
2800 mg/L (≈ 7.03 mM) | 3.34 | C/C(CC(=O)Nc1nnc(-c2ccc(O)cc2)s1)=N\c1ccc([N+](=O)[O-])cn1
3000 mg/L (≈ 7.34 mM) | 4.13 | C/C(CC(=O)Nc1nnc(/C=C/c2ccccc2)s1)=N\c1ccc([N+](=O)[O-])cn1
2100 mg/L (≈ 4.77 mM) | 3.55 | CC(=O)Oc1ccccc1-c1nnc(NC(=O)C/C(C)=N/c2ccc([N+](=O)[O-])cn2)s1
1200 mg/L (≈ 2.81 mM) | 3.54 | C/C(CC(=O)Nc1nnc(-c2ccc([N+](=O)[O-])cc2)s1)=N\c1ccc([N+](=O)[O-])cn1
2400 mg/L (≈ 6.6 mM) | 4.22 | C/C(CC(=O)Nc1nnc(/C=C/c2ccccc2)s1)=N\c1ccccn1
3100 mg/L (≈ 8.77 mM) | 3.43 | C/C(CC(=O)Nc1nnc(-c2ccc(O)cc2)s1)=N\c1ccccn1
2700 mg/L (≈ 6.79 mM) | 3.21 | C/C(CC(=O)Nc1nnc(-c2ccc(N)cc2)s1)=N\c1ccc([N+](=O)[O-])cn1
3500 mg/L (≈ 9.93 mM) | 3.3 | C/C(CC(=O)Nc1nnc(-c2ccc(N)cc2)s1)=N\c1ccccn1
2600 mg/L (≈ 6.57 mM) | 3.65 | CC(=O)Oc1ccccc1-c1nnc(NC(=O)C/C(C)=N/c2ccccn2)s1
